Assay results published in ChEMBL document CHEMBL1201862, “PubChem BioAssay data set” (2004).
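These data come from cells grown in 96-well plates and exposed to compound for 48 hours at five concentrations. GI50 marks 50% less growth.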 Activity calls are given as the source filed them. Cut-off read from the data, not from the text of the source: active = GI50 up to about 1.1 µM and inactive = higher.

Assays:
Test in all cases: NCI-60 cell line screen, 48 h
HL-60 = tested on: HL-60
OVCAR-4 = tested on: OVCAR-4
UACC-62 = tested on: UACC-62
SN12C = tested on: SN12C
HOP-92 = tested on: HOP-92
UO-31 = tested on: UO-31
MOLT-4 = tested on: MOLT-4
OVCAR-5 = tested on: OVCAR-5
A498 = tested on: A498
MDA-MB-435 = tested on: MDA-MB-435
UACC-257 = tested on: UACC-257
HCT-116 = tested on: HCT-116
RXF 393 = tested on: RXF 393
Malme-3M = tested on: Malme-3M
MDA-MB-231 = tested on: MDA-MB-231
HT-29 = tested on: HT-29
HCC 2998 = tested on: HCC 2998
NCI-H460 = tested on: NCI-H460
IGROV-1 = tested on: IGROV-1

Compound | GI50 (HL-60) | GI50 (OVCAR-4) | GI50 (UACC-62) | GI50 (SN12C) | GI50 (HOP-92) | GI50 (UO-31) | GI50 (MOLT-4) | GI50 (OVCAR-5) | GI50 (A498) | GI50 (MDA-MB-435) | GI50 (UACC-257) | GI50 (HCT-116) | GI50 (RXF 393) | GI50 (Malme-3M) | GI50 (MDA-MB-231) | GI50 (HT-29) | GI50 (HCC 2998) | GI50 (NCI-H460) | GI50 (IGROV-1)
CC(C)C(C/C=C1/CC(CO)(COC(=O)C(C)(C)C)OC1=O)C(C)C (stereo not drawn) | 0.105 µM (active) | 16.6 µM (inactive) | 12.9 µM (inactive) | 11.1 µM (inactive) | 10.4 µM (inactive) | 4.07 µM (inactive) | 0.514 µM (active) | 11.6 µM (inactive) | 7.67 µM (inactive) | 8.59 µM (inactive) | 16.8 µM (inactive) | 14.3 µM (inactive) | 15.6 µM (inactive) | 3.62 µM (inactive) | 3.25 µM (inactive) | 16.7 µM (inactive) | 3.1 µM (inactive) | 7.76 µM (inactive) | 16.2 µM (inactive)
O=C(O)C(Cl)(c1ccccc1)c1ccccc1 | > 100 µM (inactive) | > 100 µM (inactive) | > 100 µM (inactive) | > 100 µM (inactive) | > 100 µM (inactive) | > 100 µM (inactive) | > 100 µM (inactive) | > 100 µM (inactive) | > 100 µM (inactive) | > 100 µM (inactive) | > 100 µM (inactive) | > 100 µM (inactive) | > 100 µM (inactive) | > 100 µM (inactive) | > 100 µM (inactive) | > 100 µM (inactive) | > 100 µM (inactive) | > 100 µM (inactive) | > 100 µM (inactive)
O=C1Nc2ccccc2/C1=N/NC(=S)Nc1ccc(Cl)cc1 | 39 µM (inactive) | 30.4 µM (inactive) | 50.7 µM (inactive) | 29.3 µM (inactive) | 51.4 µM (inactive) | 38.8 µM (inactive) | 26.1 µM (inactive) | 64.6 µM (inactive) | 18.3 µM (inactive) | 39.8 µM (inactive) | 15.2 µM (inactive) | 24.9 µM (inactive) | 39.4 µM (inactive) | 9.62 µM (inactive) | 26.7 µM (inactive) | 41 µM (inactive) | > 100 µM (inactive) | 15.5 µM (inactive) | 26.6 µM (inactive)
CCN1CCN(c2ccc(Nc3ccnc4ccc5c(nnn5C)c34)cc2)CC1 | 4.94 µM (inactive) | 7.23 µM (inactive) | 13.7 µM (inactive) | 3.53 µM (inactive) | 4.8 µM (inactive) | 10.2 µM (inactive) | 4.45 µM (inactive) | 9.16 µM (inactive) | 14.8 µM (inactive) | 5.46 µM (inactive) | 13.2 µM (inactive) | 3.44 µM (inactive) | 7.19 µM (inactive) | 5.89 µM (inactive) | 8.55 µM (inactive) | 3.72 µM (inactive) | 1.58 µM (inactive) | 2.97 µM (inactive) | 12.9 µM (inactive)
O=[N+]([O-])c1cc(CCl)ccc1CCl | 2.11 µM (inactive) | 1.76 µM (inactive) | 4.41 µM (inactive) | 1.53 µM (inactive) | 1.76 µM (inactive) | 1.66 µM (inactive) | 2.1 µM (inactive) | 2.62 µM (inactive) | 6.59 µM (inactive) | 2.12 µM (inactive) | 3.07 µM (inactive) | 1.69 µM (inactive) | 0.585 µM (active) | 1.74 µM (inactive) | 2.33 µM (inactive) | 1.71 µM (inactive) | 2.48 µM (inactive) | 3.44 µM (inactive) | 1.56 µM (inactive)
C#CCn1c(I)cc2c(c1=O)COC(=O)[C@]2(O)CC | > 100 µM (inactive) | > 100 µM (inactive) | > 100 µM (inactive) | > 100 µM (inactive) | > 100 µM (inactive) | > 100 µM (inactive) | > 100 µM (inactive) | > 100 µM (inactive) | > 100 µM (inactive) | > 100 µM (inactive) | > 100 µM (inactive) | > 100 µM (inactive) | > 100 µM (inactive) | > 100 µM (inactive) | > 100 µM (inactive) | > 100 µM (inactive) | > 100 µM (inactive) | > 100 µM (inactive) | > 100 µM (inactive)
COc1c(C)c2c(c(=O)c3c(C)cccc3n2C)c2c1c(=O)c1c(C)cccc1n2C | > 10 µM (inactive) | > 10 µM (inactive) | > 10 µM (inactive) | > 10 µM (inactive) | > 10 µM (inactive) | > 10 µM (inactive) | > 10 µM (inactive) | > 10 µM (inactive) | > 10 µM (inactive) | > 10 µM (inactive) | > 10 µM (inactive) | > 10 µM (inactive) | > 10 µM (inactive) | > 10 µM (inactive) | > 10 µM (inactive) | > 10 µM (inactive) | > 10 µM (inactive) | 5.62 µM (inactive) | > 10 µM (inactive)
Cc1cc2c(=O)[nH]nc(N)c2c(N)n1 | > 100 µM (inactive) | > 100 µM (inactive) | > 100 µM (inactive) | > 100 µM (inactive) | > 100 µM (inactive) | > 100 µM (inactive) | > 100 µM (inactive) | > 100 µM (inactive) | > 100 µM (inactive) | > 100 µM (inactive) | > 100 µM (inactive) | > 100 µM (inactive) | > 100 µM (inactive) | > 100 µM (inactive) | > 100 µM (inactive) | > 100 µM (inactive) | > 100 µM (inactive) | > 100 µM (inactive) | > 100 µM (inactive)
CCCCOC(=O)Nc1ccc(S(=O)(=O)Nc2ccccc2Cl)cc1 | 16.9 µM (inactive) | 12.4 µM (inactive) | 17.1 µM (inactive) | 21.2 µM (inactive) | 13.7 µM (inactive) | 25.6 µM (inactive) | 12.6 µM (inactive) | 25.8 µM (inactive) | 12.8 µM (inactive) | 18.8 µM (inactive) | 31.3 µM (inactive) | 22.4 µM (inactive) | 21.3 µM (inactive) | 24.8 µM (inactive) | 21 µM (inactive) | 21 µM (inactive) | 14.1 µM (inactive) | 18.2 µM (inactive) | 21.7 µM (inactive)
Cc1cc(S(=O)(=O)NC2=Nc3cccc(F)c3CN2)c(S)cc1Cl | 96.8 µM (inactive) | 68.1 µM (inactive) | 62.1 µM (inactive) | > 100 µM (inactive) | > 100 µM (inactive) | 87.5 µM (inactive) | 49.3 µM (inactive) | > 100 µM (inactive) | > 100 µM (inactive) | 68.9 µM (inactive) | > 100 µM (inactive) | 38.7 µM (inactive) | > 100 µM (inactive) | > 100 µM (inactive) | > 100 µM (inactive) |  | > 100 µM (inactive) | 36.8 µM (inactive) | 36.2 µM (inactive)
COc1cccc2cc(C(=O)NC34CC5CC(CC(C5)C3)C4)c(=N)oc12 | 3.13 µM (inactive) | > 60.4 µM (inactive) | > 100 µM (inactive) | > 100 µM (inactive) | > 36.2 µM (inactive) | 2.67 µM (inactive) | 1.35 µM (inactive) | > 100 µM (inactive) | > 100 µM (inactive) | > 82.4 µM (inactive) | > 89.3 µM (inactive) | 52.1 µM (inactive) | 33.6 µM (inactive) | > 86.5 µM (inactive) | > 100 µM (inactive) | 47.1 µM (inactive) | > 54.2 µM (inactive) | > 89.7 µM (inactive) | > 46.3 µM (inactive)
COC(=O)C1=C(C)NC(C)=C(C(=O)OC)C1c1ccccc1NO | > 100 µM (inactive) | > 100 µM (inactive) | > 100 µM (inactive) | > 100 µM (inactive) | > 100 µM (inactive) | > 100 µM (inactive) | 27.4 µM (inactive) | > 100 µM (inactive) | > 100 µM (inactive) | 47.2 µM (inactive) | > 100 µM (inactive) | 21.9 µM (inactive) | > 100 µM (inactive) | > 100 µM (inactive) | 65.6 µM (inactive) | > 100 µM (inactive) | > 100 µM (inactive) | > 100 µM (inactive) | > 100 µM (inactive)
CC1=CC[C@@]2(C)CC[C@](O)(C(C)C)C2C(OC(=O)c2ccccc2)C1 (stereo partly drawn) | 28.9 µM (inactive) | 25 µM (inactive) |  | 23.6 µM (inactive) | 15.1 µM (inactive) | 17.3 µM (inactive) | 17.1 µM (inactive) | 16 µM (inactive) | 24.4 µM (inactive) | 36.1 µM (inactive) | 18.9 µM (inactive) | 17.3 µM (inactive) | 12.7 µM (inactive) | 21 µM (inactive) | 17.9 µM (inactive) | 16.7 µM (inactive) | 11.8 µM (inactive) | 21.6 µM (inactive) | 15.6 µM (inactive)
C=C1CCCC2[C@](C)(CC3=C(Cl)C(=O)C=C(OC)C3=O)C(C)CC[C@]12C (stereo partly drawn) | 1.9 µM (inactive) | 7.52 µM (inactive) | 6.4 µM (inactive) | 5.77 µM (inactive) | 6.12 µM (inactive) | 1.76 µM (inactive) | 0.745 µM (active) | 2.94 µM (inactive) | 8.49 µM (inactive) | 6.62 µM (inactive) | 5.89 µM (inactive) | 1.75 µM (inactive) | 5.42 µM (inactive) | 8.18 µM (inactive) | 7.6 µM (inactive) | 2.51 µM (inactive) | 9.12 µM (inactive) | 8.63 µM (inactive) | 1.9 µM (inactive)
CC(C)(C)c1ccc(OCCOc2ccc(C(C)(C)C)cc2N)c(N)c1 | > 100 µM (inactive) | 20 µM (inactive) | > 100 µM (inactive) | > 100 µM (inactive) | 17.4 µM (inactive) | > 100 µM (inactive) | > 100 µM (inactive) | > 100 µM (inactive) | 18.3 µM (inactive) | > 100 µM (inactive) | > 100 µM (inactive) | > 100 µM (inactive) | > 100 µM (inactive) | 22.2 µM (inactive) | 17.5 µM (inactive) | 10 µM (inactive) | > 100 µM (inactive) | > 100 µM (inactive) | 38.5 µM (inactive)
